Results: the NIST ThermoML archive (doi:10.1016/j.jct.2018.02.014)
Numbers after ± are expanded uncertainties.

Key:
[1] = 101.33 kPa, Liquid; for viscosity: Falling or rolling sphere viscometry; for mass density: Vibrating tube method
[2] = activity coefficient (dimensionless); of the first substance listed, at infinite dilution; xn = mol fraction of the nth substance listed; settings: 101.33 kPa, Liquid, Chromatography, x1 = 0

`CC[N+]1(C)CCOCC1.N#CN=C=[N-]` [N-ethyl-N-methylmorpholinium dicyanamide] gave a viscosity ([1]; 298.15 K) of 176 ± 8 mPa·s, a mass density ([1]; 298.15 K) of 1123.2 ± 4.8 kg/m3 and a mass density ([1]; 303.15 K) of 1120.2 ± 4.8 kg/m3. For the same molecule, the viscosity ([1]; 308.15 K) was 106 ± 4 mPa·s, the mass density ([1]; 308.15 K) was 1117.2 ± 4.8 kg/m3 and the mass density ([1]; 313.15 K) was 1114.2 ± 4.8 kg/m3. For the same molecule, the viscosity ([1]; 318.15 K) was 68.3 ± 1.8 mPa·s, the mass density ([1]; 318.15 K) was 1111.3 ± 4.8 kg/m3 and the mass density ([1]; 323.15 K) was 1108.4 ± 4.8 kg/m3. It also gave a viscosity ([1]; 328.15 K) of 47.4 ± 1.2 mPa·s, a mass density ([1]; 328.15 K) of 1105.4 ± 4.7 kg/m3 and a mass density ([1]; 333.15 K) of 1102.5 ± 4.7 kg/m3. It also gave a viscosity ([1]; 338.15 K) of 33.7 ± 0.8 mPa·s, a mass density ([1]; 338.15 K) of 1099.7 ± 4.7 kg/m3 and a mass density ([1]; 343.15 K) of 1096.8 ± 4.7 kg/m3. For the same molecule, the viscosity ([1]; 348.15 K) was 24.8 ± 0.6 mPa·s, the mass density ([1]; 348.15 K) was 1093.9 ± 4.7 kg/m3 and the mass density ([1]; 353.15 K) was 1091.1 ± 4.7 kg/m3. The viscosity ([1]; 358.15 K) was 19.2 ± 0.5 mPa·s, the mass density ([1]; 358.15 K) was 1088.3 ± 4.6 kg/m3 and the mass density ([1]; 363.15 K) was 1085.5 ± 4.6 kg/m3. For the same molecule, the viscosity ([1]; 368.15 K) was 15.6 ± 0.4 mPa·s and the mass density ([1]; 368.15 K) was 1082.7 ± 4.6 kg/m3.
In the case of `C1CCOC1` [tetrahydrofuran] + CC[N+]1(C)CCOCC1.N#CN=C=[N-], the activity coefficient ([2]; 318.15 K) is reported as 3.3 ± 0.22, the activity coefficient ([2]; 328.15 K) is reported as 3.44 ± 0.23 and the activity coefficient ([2]; 338.15 K) is reported as 3.57 ± 0.24. For the same molecule, the activity coefficient ([2]; 348.15 K) was 3.7 ± 0.25, the activity coefficient ([2]; 358.15 K) was 3.82 ± 0.26 and the activity coefficient ([2]; 368.15 K) was 3.95 ± 0.27.
With `C#CCCCCC` [1-heptyne] + CC[N+]1(C)CCOCC1.N#CN=C=[N-] the activity coefficient ([2]; 318.15 K) was 44.9 ± 3.1, the activity coefficient ([2]; 328.15 K) was 46.3 ± 3.2 and the activity coefficient ([2]; 338.15 K) was 47.6 ± 3.3. For the same molecule, the activity coefficient ([2]; 348.15 K) was 49 ± 3.4, the activity coefficient ([2]; 358.15 K) was 50.3 ± 3.4 and the activity coefficient ([2]; 368.15 K) was 51.6 ± 3.5.
For `CC(C)CO` [2-methyl-1-propanol] + CC[N+]1(C)CCOCC1.N#CN=C=[N-], the activity coefficient ([2]; 318.15 K) was 3.01 ± 0.2, the activity coefficient ([2]; 328.15 K) was 2.93 ± 0.2 and the activity coefficient ([2]; 338.15 K) was 2.86 ± 0.19. The activity coefficient ([2]; 348.15 K) was 2.79 ± 0.19, the activity coefficient ([2]; 358.15 K) was 2.73 ± 0.19 and the activity coefficient ([2]; 368.15 K) was 2.67 ± 0.18.
`C=CCCCC` [hex-1-ene] + CC[N+]1(C)CCOCC1.N#CN=C=[N-] gave an activity coefficient ([2]; 298.15 K) of 193 ± 13, an activity coefficient ([2]; 308.15 K) of 177 ± 12 and an activity coefficient ([2]; 318.15 K) of 163 ± 11. For the same molecule, the activity coefficient ([2]; 328.15 K) was 152 ± 10 and the activity coefficient ([2]; 338.15 K) was 141 ± 10.
`CC(C)CC(C)(C)C` [2,2,4-trimethylpentane] + CC[N+]1(C)CCOCC1.N#CN=C=[N-] showed an activity coefficient ([2]; 298.15 K) of 1220 ± 84, an activity coefficient ([2]; 308.15 K) of 1070 ± 74 and an activity coefficient ([2]; 318.15 K) of 951 ± 66. It also gave an activity coefficient ([2]; 328.15 K) of 853 ± 59 and an activity coefficient ([2]; 338.15 K) of 768 ± 53.
`CCOC(C)(C)C` [2-ethoxy-2-methylpropane] + CC[N+]1(C)CCOCC1.N#CN=C=[N-] showed an activity coefficient ([2]; 328.15 K) of 105 ± 7, an activity coefficient ([2]; 338.15 K) of 108 ± 7 and an activity coefficient ([2]; 348.15 K) of 111 ± 8. The activity coefficient ([2]; 358.15 K) was 113 ± 8 and the activity coefficient ([2]; 368.15 K) was 116 ± 8.
`C=C(C)c1ccccc1` [(1-methylethenyl)benzene] + CC[N+]1(C)CCOCC1.N#CN=C=[N-] gave an activity coefficient ([2]; 318.15 K) of 10.5 ± 0.7, an activity coefficient ([2]; 328.15 K) of 11.1 ± 0.8 and an activity coefficient ([2]; 338.15 K) of 11.6 ± 0.8. For the same molecule, the activity coefficient ([2]; 348.15 K) was 12.1 ± 0.8, the activity coefficient ([2]; 358.15 K) was 12.6 ± 0.9 and the activity coefficient ([2]; 368.15 K) was 13.1 ± 0.9.
`CCc1ccccc1` [ethylbenzene] + CC[N+]1(C)CCOCC1.N#CN=C=[N-] gave an activity coefficient ([2]; 318.15 K) of 15.1 ± 1, an activity coefficient ([2]; 328.15 K) of 15.3 ± 1 and an activity coefficient ([2]; 338.15 K) of 15.5 ± 1.1. The activity coefficient ([2]; 348.15 K) was 15.7 ± 1.1, the activity coefficient ([2]; 358.15 K) was 15.8 ± 1.1 and the activity coefficient ([2]; 368.15 K) was 16 ± 1.1.
Work on `Cc1cccc(C)c1` [1,3-dimethylbenzene] + CC[N+]1(C)CCOCC1.N#CN=C=[N-] yielded an activity coefficient ([2]; 318.15 K) of 13.8 ± 0.9, an activity coefficient ([2]; 328.15 K) of 14.1 ± 1 and an activity coefficient ([2]; 338.15 K) of 14.4 ± 1. It also gave an activity coefficient ([2]; 348.15 K) of 14.7 ± 1, an activity coefficient ([2]; 358.15 K) of 14.9 ± 1 and an activity coefficient ([2]; 368.15 K) of 15.2 ± 1.
With `C=Cc1ccccc1` [styrene] + CC[N+]1(C)CCOCC1.N#CN=C=[N-] the activity coefficient ([2]; 318.15 K) was 6.38 ± 0.43, the activity coefficient ([2]; 328.15 K) was 6.59 ± 0.45 and the activity coefficient ([2]; 338.15 K) was 6.81 ± 0.46. The activity coefficient ([2]; 348.15 K) was 7.01 ± 0.48, the activity coefficient ([2]; 358.15 K) was 7.22 ± 0.49 and the activity coefficient ([2]; 368.15 K) was 7.43 ± 0.51.
Molecule `C1CCCCCCC1` [cyclooctane] + CC[N+]1(C)CCOCC1.N#CN=C=[N-] has an activity coefficient ([2]; 318.15 K) of 313 ± 22, an activity coefficient ([2]; 328.15 K) of 293 ± 20 and an activity coefficient ([2]; 338.15 K) of 273 ± 19. It also gave an activity coefficient ([2]; 348.15 K) of 257 ± 18, an activity coefficient ([2]; 358.15 K) of 242 ± 17 and an activity coefficient ([2]; 368.15 K) of 229 ± 16.
